≈ marks a conversion by molar mass, not a printed value. Like-named read-outs stand apart in the source and are kept apart here.
What was measured:
Assay type in all cases: cell-based
[1] = system: K. pneumoniae multidrug-resistant; assay: MIC, Gram-negative bacteria: K. pneumoniae multidrug-resistant; conditions: Klebsiella pneumoniae, read-out: Minimal Inhibitory Concentration (MIC) K. pneumoniae multidrug-resistant
Gram-Negative Organisms = assay: microbe, parasite or virus in culture
[2] = system: S. aureus Linezolid-resistant; cfr; assay: MIC, Gram-positive bacteria: S. aureus Linezolid-resistant; cfr; conditions: Staphylococcus aureus, column 9, read-out: Minimal Inhibitory Concentration (MIC) S. aureus Linezolid-resistant
P. aeruginosa ATCC 27853 = assay: MIC, Gram-negative bacteria: P. aeruginosa ATCC 27853; conditions: Pseudomonas aeruginosa, ATCC27853, read-out: Minimal Inhibitory Concentration (MIC) P. aeruginosa ATCC 27853
H. influenzae ATCC 49247 = assay: MIC, Gram-negative bacteria: H. influenzae ATCC 49247; conditions: Haemophilus influenzae, ATCC49247, read-out: Minimal Inhibitory Concentration (MIC) H. influenzae ATCC 49247
E. faecalis = assay: MIC, Gram-positive bacteria: E. faecalis; conditions: Enterococcus faecalis, column 1, read-out: Minimal Inhibitory Concentration (MIC) E. faecalis
E. faecium ATCC 35667 = assay: MIC, Gram-positive bacteria: E. faecium ATCC 35667; conditions: Enterococcus faecium, ATCC35667, column 2, read-out: Minimal Inhibitory Concentration (MIC) E. faecium ATCC 35667
S. pneumoniae = assay: MIC, Gram-positive bacteria: S. pneumoniae; conditions: Streptococcus pneumoniae, column 10, read-out: Minimal Inhibitory Concentration (MIC) S. pneumoniae
E. faecium VRE; vanA = assay: MIC, Gram-positive bacteria: E. faecium VRE; vanA; conditions: Enterococcus faecium, column 3, read-out: Minimal Inhibitory Concentration (MIC) E. faecium VRE
[3] = system: P. aeruginosa MDR clinical isolate; assay: MIC, Gram-negative bacteria: P. aeruginosa MDR clinical isolate; conditions: Pseudomonas aeruginosa, read-out: Minimal Inhibitory Concentration (MIC) P. aeruginosa MDR clinical isolate
S. aureus = assay: MIC, Gram-positive bacteria: S. aureus (strains not named); conditions: Staphylococcus aureus, read-out: Minimal Inhibitory Concentration (MIC) S. aureus
[4] = system: S. aureus Vat A streptogramin; assay: MIC, Gram-positive bacteria: S. aureus Vat A streptogramin; conditions: Staphylococcus aureus; Gram-positive; column 5; read-out: Minimal Inhibitory Concentration (MIC) S. aureus Vat A streptogramin
[5] = Acinetobacter baumannii, ATCC19606, read-out: Minimal Inhibitory Concentration (MIC), A. baumannii ATCC 19606
[6] = Escherichia coli, ATCC25922, read-out: Minimal Inhibitory Concentration (MIC), E. coli ATCC 25922
[7] = Escherichia coli, read-out: Minimal Inhibitory Concentration (MIC), E. coli BAS2006, OMP C, OMP F
[8] = Escherichia coli, read-out: Minimal Inhibitory Concentration (MIC), E. coli olC efflux defective
[9] = Escherichia coli, read-out: Minimal Inhibitory Concentration (MIC), E. coli permeability mutant BAS1314, IMP4213ZAB::TN10
[10] = Klebsiella pneumoniae, ATCC43816, read-out: Minimal Inhibitory Concentration (MIC), K. pneumoniae ATCC 43816
[11] = first unnamed S. aureus column (c4)
[12] = fourth unnamed S. aureus column (c8)
[13] = second unnamed S. aureus column (c6)
[14] = third unnamed S. aureus column (c7)
[15] = Escherichia coli, read-out: Minimal Inhibitory Concentration (MIC), E. coli ΔompC768, KanR insert

SMILES	MIC [1]	MIC (Gram-Negative Organisms; [5])	MIC (Gram-Negative Organisms; [6])	MIC (Gram-Negative Organisms; [7])	MIC (Gram-Negative Organisms; [8])	MIC (Gram-Negative Organisms; [9])	MIC (Gram-Negative Organisms; [10])	MIC [2]	MIC (P. aeruginosa ATCC 27853)	MIC (H. influenzae ATCC 49247)	MIC (E. faecalis)	MIC (E. faecium ATCC 35667)	MIC (S. pneumoniae)	MIC (E. faecium VRE; vanA)	MIC [3]	MIC (S. aureus; [11])	MIC (S. aureus; [12])	MIC (S. aureus; [13])	MIC (S. aureus; [14])	MIC [4]	further results
CC1=C\[C@@H](O)CC(=O)Cc2nc(co2)C(=O)N2CCC[C@@H]2C(=O)O[C@H]([C@@H](C)COC(=O)Nc2coc(C)n2)[C@H](C)/C=C/C(=O)NC\C=C\1 [SA0110095]	> 64 µg/mL	> 64 µg/mL	> 64 µg/mL	32 µg/mL (≈ 47.9 µM)	8 µg/mL (≈ 12 µM)	16 µg/mL (≈ 24 µM)	> 64 µg/mL	> 64 µg/mL	> 64 µg/mL	64 µg/mL (≈ 95.8 µM)	> 64 µg/mL	32 µg/mL (≈ 47.9 µM)	16 µg/mL (≈ 24 µM)	> 64 µg/mL	> 64 µg/mL	> 64 µg/mL	64 µg/mL (≈ 95.8 µM)	> 64 µg/mL	> 64 µg/mL	> 64 µg/mL	
CC1=C\[C@@H](O)CC(=O)Cc2nc(co2)C(=O)N2CCC[C@@H]2C(=O)O[C@H]([C@@H](C)COC(=O)Nc2ccc(Br)nc2)[C@H](C)/C=C/C(=O)NC\C=C\1 [SA0110082]	> 64 µg/mL	> 64 µg/mL	> 64 µg/mL	32 µg/mL (≈ 43.1 µM)	4 µg/mL (≈ 5.39 µM)	16 µg/mL (≈ 21.5 µM)	> 64 µg/mL	> 64 µg/mL	> 64 µg/mL	64 µg/mL (≈ 86.2 µM)	> 64 µg/mL	32 µg/mL (≈ 43.1 µM)	8 µg/mL (≈ 10.8 µM)	> 64 µg/mL	> 64 µg/mL	> 64 µg/mL	32 µg/mL (≈ 43.1 µM)	> 64 µg/mL	> 64 µg/mL	> 64 µg/mL	
C[C@H]1COc2c(N3CCN(C)CC3)c(F)cc3c(=O)c(C(=O)O)cn1c23 [levofloxacin]	1 µg/mL (≈ 2.77 µM)	0.25 µg/mL (≈ 0.692 µM)	0.015 µg/mL (≈ 0.0415 µM)				0.03 µg/mL (≈ 0.083 µM)	8 µg/mL (≈ 22.1 µM)	2 µg/mL (≈ 5.53 µM)	0.03 µg/mL (≈ 0.083 µM)	1 µg/mL (≈ 2.77 µM)	4 µg/mL (≈ 11.1 µM)	0.5 µg/mL (≈ 1.38 µM)	> 8 µg/mL	> 8 µg/mL	0.25 µg/mL (≈ 0.692 µM)	2 µg/mL (≈ 5.53 µM)	0.12 µg/mL (≈ 0.332 µM)	0.25 µg/mL (≈ 0.692 µM)	1 µg/mL (≈ 2.77 µM)	MIC (Gram-Negative Organisms; [15]): 0.015 µg/mL (≈ 0.0415 µM)
CC1=C\[C@@H](O)CC(=O)Cc2nc(co2)C(=O)N2CCC[C@@H]2C(=O)O[C@H]([C@@H](C)COC(=O)Nc2ccc(C)cc2)[C@H](C)/C=C/C(=O)NC\C=C\1 [SA0110037]	> 64 µg/mL	> 64 µg/mL	> 64 µg/mL	16 µg/mL (≈ 23.6 µM)	4 µg/mL (≈ 5.91 µM)	8 µg/mL (≈ 11.8 µM)	> 64 µg/mL	> 64 µg/mL	> 64 µg/mL	> 64 µg/mL	> 64 µg/mL	16 µg/mL (≈ 23.6 µM)	16 µg/mL (≈ 23.6 µM)	64 µg/mL (≈ 94.6 µM)	> 64 µg/mL	32 µg/mL (≈ 47.3 µM)	16 µg/mL (≈ 23.6 µM)	32 µg/mL (≈ 47.3 µM)	64 µg/mL (≈ 94.6 µM)	> 64 µg/mL	
CC1=C\[C@@H](O)C[C@@H](O)Cc2nc(co2)C(=O)N[C@H](C)C(=O)O[C@H](C(C)C)[C@H](C)/C=C/C(=O)NC\C=C\1 [madumycin II, Madumycin II, reference compound]	> 64 µg/mL	> 64 µg/mL	> 64 µg/mL	1 µg/mL (≈ 1.99 µM)	2 µg/mL (≈ 3.97 µM)	0.5 µg/mL (≈ 0.993 µM)	> 64 µg/mL	> 64 µg/mL	> 64 µg/mL	1 µg/mL (≈ 1.99 µM)	> 64 µg/mL	0.5 µg/mL (≈ 0.993 µM)	4 µg/mL (≈ 7.94 µM)	8 µg/mL (≈ 15.9 µM)	> 64 µg/mL	8 µg/mL (≈ 15.9 µM)	8 µg/mL (≈ 15.9 µM)	8 µg/mL (≈ 15.9 µM)	16 µg/mL (≈ 31.8 µM)	> 64 µg/mL	
CC1=C\[C@@H](O)CC(=O)Cc2nc(co2)C(=O)N[C@H](Cc2ccc(O)cc2)C(=O)O[C@H](C(C)C)[C@H](C)/C=C/C(=O)NC\C=C\1 [SA0202097]	> 64 µg/mL	> 64 µg/mL	> 64 µg/mL	> 64 µg/mL	32 µg/mL (≈ 53.9 µM)	32 µg/mL (≈ 53.9 µM)	> 64 µg/mL	> 64 µg/mL	> 64 µg/mL	> 64 µg/mL	> 64 µg/mL	> 64 µg/mL	64 µg/mL (≈ 108 µM)	> 64 µg/mL	> 64 µg/mL	> 64 µg/mL	> 64 µg/mL	> 64 µg/mL	> 64 µg/mL	> 64 µg/mL	MIC (Gram-Negative Organisms; [15]): > 64 µg/mL
CC1=C\[C@@H](O)CC(=O)Cc2nc(co2)C(=O)N[C@H](Cc2c[nH]c3ccccc23)C(=O)O[C@H](C(C)C)[C@H](C)/C=C/C(=O)NC\C=C\1 [SA0202089]	> 64 µg/mL	> 64 µg/mL	> 64 µg/mL	32 µg/mL (≈ 51.9 µM)	16 µg/mL (≈ 25.9 µM)	8 µg/mL (≈ 13 µM)	> 64 µg/mL	> 64 µg/mL	> 64 µg/mL	> 64 µg/mL	> 64 µg/mL	32 µg/mL (≈ 51.9 µM)	32 µg/mL (≈ 51.9 µM)	32 µg/mL (≈ 51.9 µM)	> 64 µg/mL	32 µg/mL (≈ 51.9 µM)	32 µg/mL (≈ 51.9 µM)	32 µg/mL (≈ 51.9 µM)	32 µg/mL (≈ 51.9 µM)	64 µg/mL (≈ 104 µM)	
CC1=C\[C@@H](O)CC(=O)Cc2nc(co2)C(=O)N2CCC[C@@H]2C(=O)O[C@H]([C@@H](C)COC(=O)Nc2ccc(OC(F)(F)F)cc2)[C@H](C)/C=C/C(=O)NC\C=C\1 [SA0110041]	> 64 µg/mL	> 64 µg/mL	> 64 µg/mL	> 64 µg/mL	8 µg/mL (≈ 10.7 µM)	8 µg/mL (≈ 10.7 µM)	> 64 µg/mL	> 64 µg/mL	> 64 µg/mL	> 64 µg/mL	> 64 µg/mL	8 µg/mL (≈ 10.7 µM)	> 64 µg/mL	> 64 µg/mL	> 64 µg/mL	> 64 µg/mL	32 µg/mL (≈ 42.9 µM)	> 64 µg/mL	> 64 µg/mL	> 64 µg/mL	
CC1=C\[C@@H](O)CC(=O)Cc2nc(co2)C(=O)N2CCC[C@@H]2C(=O)O[C@H]([C@@H](C)COC(=O)Nc2ccccc2)[C@H](C)/C=C/C(=O)NC\C=C\1 [SA0110043]	> 64 µg/mL	> 64 µg/mL	> 64 µg/mL	16 µg/mL (≈ 24.1 µM)	2 µg/mL (≈ 3.02 µM)	8 µg/mL (≈ 12.1 µM)	> 64 µg/mL	> 64 µg/mL	> 64 µg/mL	32 µg/mL (≈ 48.3 µM)	> 64 µg/mL	16 µg/mL (≈ 24.1 µM)	16 µg/mL (≈ 24.1 µM)	64 µg/mL (≈ 96.6 µM)	> 64 µg/mL	32 µg/mL (≈ 48.3 µM)	32 µg/mL (≈ 48.3 µM)	32 µg/mL (≈ 48.3 µM)	64 µg/mL (≈ 96.6 µM)	> 64 µg/mL	
CC1=C\[C@@H](O)CC(N)Cc2nc(cs2)C(=O)N2CCC[C@@H]2C(=O)O[C@H](C(C)C)[C@H](C)/C=C/C(=O)NC\C=C\1 (some centres unmarked) [SA0110268]	> 64 µg/mL	> 64 µg/mL	> 64 µg/mL	16 µg/mL (≈ 29.4 µM)	2 µg/mL (≈ 3.67 µM)	2 µg/mL (≈ 3.67 µM)	> 64 µg/mL	> 64 µg/mL	> 64 µg/mL	64 µg/mL (≈ 117 µM)	> 64 µg/mL	64 µg/mL (≈ 117 µM)	32 µg/mL (≈ 58.7 µM)	> 64 µg/mL	> 64 µg/mL	> 64 µg/mL	> 64 µg/mL	> 64 µg/mL	> 64 µg/mL	> 64 µg/mL	MIC (Gram-Negative Organisms; [15]): > 64 µg/mL
COc1ccc(NC(=O)OC[C@@H](C)[C@H]2OC(=O)[C@H]3CCCN3C(=O)c3coc(n3)CC(=O)C[C@H](O)/C=C(C)/C=C/CNC(=O)/C=C/[C@H]2C)cc1 [SA0110185]	> 64 µg/mL	> 64 µg/mL	> 64 µg/mL	64 µg/mL (≈ 92.4 µM)	2 µg/mL (≈ 2.89 µM)	4 µg/mL (≈ 5.77 µM)	> 64 µg/mL	> 64 µg/mL	> 64 µg/mL	16 µg/mL (≈ 23.1 µM)	> 64 µg/mL	16 µg/mL (≈ 23.1 µM)	32 µg/mL (≈ 46.2 µM)	32 µg/mL (≈ 46.2 µM)	> 64 µg/mL	32 µg/mL (≈ 46.2 µM)	16 µg/mL (≈ 23.1 µM)	16 µg/mL (≈ 23.1 µM)	32 µg/mL (≈ 46.2 µM)	> 64 µg/mL	MIC (Gram-Negative Organisms; [15]): > 64 µg/mL

— patent US20200325177A1, “METHODS OF MAKING STREPTOGRAMIN COMPOSITIONS AND THE USE THEREOF” (THE REGENTS OF THE UNIVERSITY OF CALIFORNIA, priority 2017, published 2020)
